Where two headings read alike, the source gives them in different places.
How the values were obtained:
[1] = test system: cellular pERK in NCI-H1975 cells (EGFR/L858R-T790M); experiment: pERK Potency Assay; format: cell-based; details: Homo sapiens, 1 hour incubation, Western blot, read-out: IC50 value, cellular pERK level
From the text: The purpose of this assay is to measure the ability of test compounds to inhibit SOS1 function in cells. SOS1 activates RAS proteins by catalyzing the conversion of RAS-GDP to RAS-GTP in response to receptor tyrosine kinase activation. Activation of RAS induces a sequence of cellular signaling events that results in increased phosphorylation of ERK at Threonine 202 and Tyrosine 204 (pERK). The procedure described below measured the level of cellular pERK in response to test compounds in NCI-H1975 cells (EGFR/L858R-T790M).
NCI-H1975 cells were grown and maintained using media and procedures recommended by the ATCC. On the day prior to compound addition, cells were plated in 24-well cell culture plates (0.9 ml/well) and grown overnight in a 37° C., 5% CO2 incubator. Test compounds were prepared with 3-fold serial dilutions in DMSO, with a top concentration of 10 mM. On the day of the assay, 100 uL of each test compound diluted at 1:100 in media was added to each well of cell culture plate with final concentrations of the compound spanning 0.5 nM to 10 uM. After the compound was added, the cells were incubated for 1 hour at 37° C., 5% CO2. Following incubation, culture medium was removed, and the cells were washed once with phosphate buffered saline and lysed with lysis buffer (20 mM Tris-HCl, pH 7.5, 150 mM NaCl, 1 mM EDTA, 1 mM EGTA, 0.8% NP-40 plus 2× protease and phosphatase inhibitors). Cellular pERK level was determined using the Western blot analysis and quantified with Liqor software. Signal from Western blot was plotted and IC50 values were determined by fitting a 4-parameter sigmoidal concentration response model.

[2] = target: T1, protein-protein interaction between SOS1 and KRAS-G12D (Homo sapiens, UniProt Q07889); experiment: HTRF Based Protein-Protein Interaction Assay; format: binding
T1 construct: The purified GST-SOS1 catalytic domain (residues 564-1049) was first diluted in assay buffer; made in house; host or cells: E. coli BL21 (DE3) for SOS1; E. coli BL21 carrying a BirA plasmid for KRAS-G12D
T1 sequence (Q07889 564-1049): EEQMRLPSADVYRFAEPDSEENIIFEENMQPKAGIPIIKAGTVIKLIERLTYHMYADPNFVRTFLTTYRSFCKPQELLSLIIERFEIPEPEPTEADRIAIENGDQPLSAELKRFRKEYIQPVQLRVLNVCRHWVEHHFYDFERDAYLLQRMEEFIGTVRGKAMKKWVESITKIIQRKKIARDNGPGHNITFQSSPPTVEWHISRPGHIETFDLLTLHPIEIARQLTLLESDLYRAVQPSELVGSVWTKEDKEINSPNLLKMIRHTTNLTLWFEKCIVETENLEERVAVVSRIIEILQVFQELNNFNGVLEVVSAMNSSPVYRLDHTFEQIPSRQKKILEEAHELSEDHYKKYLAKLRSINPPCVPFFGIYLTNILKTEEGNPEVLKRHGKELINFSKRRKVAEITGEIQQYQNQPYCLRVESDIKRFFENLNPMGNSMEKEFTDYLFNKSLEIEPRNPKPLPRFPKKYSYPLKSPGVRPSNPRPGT
From the text: A KRAS-G12D and SOS1 binding/interaction assay was designed to measure the interaction between KRAS-G12D and SOS1 proteins. Utilizing HTRF (Homogeneous Time-Resolved Fluorescence) technology, the assay enabled simple and rapid characterization of compound and protein interaction in a high throughput format. This assay was used to examine potency of the compounds in inhibiting the protein-protein interaction between SOS1 and KRAS-G12D. […] Low IC50 values are indicative of high potency of the SOS1 inhibitor compound to disrupt SOS1 and Kras-G12D interaction.
Protein Expression and Purification. The corresponding gene sequence to human SOS1 (residues 564-1049, UniProt ID: Q07889; SEQ ID NO: 2) was synthesized and fused in frame with GST expression vector. After the desired sequence was confirmed, plasmid containing the sequence was transformed into the E. coli strain BL21 (DE3). Bacteria were growing at 37° C. in LB media containing 50 μg/ml Kanamycin to give OD600 of 0.6-0.8. Then 0.2 mM IPTG was added to induce protein expression for 16 hours at 17° C. Bacteria were harvested by centrifugation and stored at −80° C. Bacteria pellets were resuspended in lysis buffer (25 mM Tris-HCl, 500 mM NaCl, 2 mM DTT, 2.3% sucrose, 0.3% dextran-10, 1 mM PMSF, pH 7.5) and lysed using high-pressure homogenizer. The lysate was cleared by centrifugation for 30 minutes (12000 rpm at 4° C.). The supernatant containing GST-SOS1 fragment was purified sequentially through Glutathione column and gel filtration (Hiload 16/600 Superdex […] column, Cytiva). The purified GST-SOS1 fragment was confirmed by SDS-PAGE and stored in 25 mM Tris-HCl, 100 mM NaCl, 1 mM DTT, 2.3% sucrose, 0.3% dextran-10, pH 7.5 at −80° C.
Kras-G12D Protein Purification. The sequence corresponding to human KRAS-G12D (residues 1-169, UniProt P01116-2; SEQ ID NO: 1) was synthesized and fused in frame with His-AVI-TEV vector. The plasmid was transformed into the E. coli strain BL21 (containing a plasmid that can generate BirA enzyme). Bacteria were growing at 37° C. in TB media containing 100 μg/ml ampicillin and 50 μg/ml Kanamycin to give OD600 of 0.6-0.8. The 0.5 mM IPTG and 50 mg/l biotin were added to induce protein expression for 16 hours at 25° C. Bacteria were harvested by centrifugation and stored at −80° C. Bacteria pellets were re-suspended in lysis buffer (20 mM Tris-HCl, 500 mM NaCl, 5 mM MgCl2, 2 mM […], 5% glycerol, pH 8.0) and lysed using high-pressure homogenizer. The lysate was cleared by centrifugation for 30 minutes (12000 rpm at 4° C.). The supernatant containing HIS-AVI-TEV-KRAS-G12D fragment was purified sequentially through Ni-NTA column (SMART), Streptactin column (SMART), and gel filtration (Hiload 16/600 Superdex 75 pg, GE). The purified HIS-AVI-TEV-KRAS-G12D fragment was confirmed by SDS-PAGE and stored in 50 mM HEPES-NaOH, 100 mM NaCl, 1 mM DTT, 5 mM MgCl2, pH 7.5 at −80° C.
Protein-Protein Interaction Assay. An assay buffer containing 50 mM HEPES, pH 7.5, 50 mM NaCl, 0.01% Brij-35, 1 mM TCEP, 0.1% BSA was prepared, and concentration series of test compounds were generated spanning from 0.5 nM to 10 μM over 10 3-fold serial dilutions in a 384-well assay plate at a volume of 20 pL. The purified GST-SOS1 catalytic domain (residues 564-1049) was first diluted in assay buffer and 5 μl of SOS1 (final concentration 2.5 nM in assay mixture) was directly dispensed into compound plates. After a spin down at 1000 RPM for 30 seconds, the SOS1/compound mixture was incubated at 25° C. for 15 minutes to allow the reaction between SOS1 and the compound. A KRAS-G12D mixture was prepared by incubation of avi-tagged Kras-G12D (residue 1-169) and GDP in assay buffer containing 10 mM MgCl2 at room temperature for 10 minutes. A KRAS-G12D and GDP mixture (5 μL) was added to the assay plate (final KRAS-G12D was 100 nM and GDP was 10 uM). The plate was centrifuged at 1000 rpm for 30 sec and incubated at 25° C. for 60 minutes. […]

[3] = HTRF, GST-SOS1 2.5 nM, KRAS-G12D 100 nM, GDP 10 uM, read-out: IC50 value, inhibition of SOS1/KRAS-G12D protein-protein interaction

SMILES	IC50 [1] [nM]	IC50 [2, 3] [nM]	IC50 [2] [nM]
C#C[C@@H](Nc1nc(C)nc2cc(=O)n(C3(C(F)F)CC3)cc12)c1cccc(C(F)F)c1C [Compound 1, (R)-4-((1-(3-(difluoromethyl)-2-methylphenyl)prop-2-yn-1-yl)amino)-6-(1-(difluoromethyl)cyclopropyl)-2-methylpyrido[4,3-d]pyrimidin-7(6H)-one]	100 to 500	< 100	–
C#C[C@@H](Nc1ncnc2c1cc(C1(NC(C)=O)CC3CCC(C1)O3)c(=O)n2C)c1cccc(C(F)F)c1F (stereo partly drawn) [Compound 61, N-(3(4-(((R)-1-3-(difluoromethyl)-2-fluorophenyl)prop-2-yn-1-yl)amino-8-methyl-7-oxo-7,8-dihydorpyrido[2,3-d]pyrimidin-6-yl)-8-oxabicyclo[3.2.1]octan-3-yl)acetamide]	100 to 500	–	–
[2H]C([2H])([2H])n1c(=O)c(C2(OC)CCN(C(C)=O)CC2)cc2c(N[C@H](C#C)c3cccc(C(F)(F)F)c3C)nc(C)nc21 [Compound 50, 6-(1-acetyl-4-methoxypiperidin-4-yl)-8-(^2H3)methyl-2-methyl-4-{[(1R)-1-[2-methyl-3-(trifluoromethyl)phenyl]prop-2-yn-1-yl]amino}-7H,8H-pyrido[2,3-d]pyrimidin-7-one]	< 100	100 to 200	–
C#C[C@@H](Nc1ncnc2c1cc(C1(N)CCOCC1)c(=O)n2C)c1cccc(C(F)(F)F)c1C [Compound 60]	< 100	–	–
[2H]C([2H])([2H])n1c(=O)c(C2(F)CCN(C(C)=O)CC2)cc2c(N[C@H](C#C)c3cccc(C(F)(F)F)c3C)nc(C)nc21 [Compound 53]	< 100	100 to 200	–
C#C[C@@H](Nc1ncnc2c1cc(C1=CC3CCC(C1)O3)c(=O)n2C)c1cccc(C(F)F)c1F (some centres unmarked) [Compound 62]	100 to 500	–	–
C#C[C@@H](Nc1ncnc2c1cc(C1(O)CC3CCC(C1)N3C(C)=O)c(=O)n2C)c1cccc(C(F)F)c1F (some centres unmarked) [Compound 63]	100 to 500	–	–
[2H]C([2H])([2H])n1c(=O)c(C2=CCN(C(C)=O)CC2)cc2c(N[C@H](C#C)c3cccc(C(F)(F)F)c3C)nc(C)nc21 [Compound 52, 6-(1-acetyl-1,2,3,6-tetrahydropyridin-4-yl)-8-(^2H3)methyl-2-methyl-4-{[(1R)-1-[2-methyl-3-(trifluoromethyl)phenyl]prop-2-yn-1-yl]amino}-7H,8H-pyrido[2,3-d]pyrimidin-7-one]	100 to 500	–	–
[2H]C([2H])([2H])n1c(=O)c(C2(O)CCN(C(C)=O)CC2)cc2c(N[C@H](C#C)c3cccc(C(F)(F)F)c3C)nc(C)nc21 [Compound 51, 6-(1-acetyl-4-hydroxypiperidin-4-yl)-8-(^2H3)methyl-2-methyl-4-{[(1R)-1-[2-methyl-3-(trifluoromethyl)phenyl]prop-2-yn-1-yl]amino}-7H,8H-pyrido[2,3-d]pyrimidin-7-one]	< 100	100 to 200	–
C#C[C@@H](Nc1ncnc2c1cc(C1(NC(C)=O)CC3CCC(C1)N3C(C)=O)c(=O)n2C)c1cccc(C(F)F)c1F (some centres unmarked) [Compound 64]	100 to 500	–	–
C#C[C@@H](Nc1ncnc2c1cc(C1=CC3CCC(C1)N3C(C)=O)c(=O)n2C)c1cccc(C(F)F)c1F (some centres unmarked) [Compound 65]	< 100	–	< 100
C#C[C@@H](Nc1nc(C)nc2cc(=O)n(C3(C(F)F)CC3)cc12)c1cccc(C(F)F)c1F [Compound 24, (R)-4-((1-(3-(difluoromethyl)-2-fluorophenyl)prop-2-yn-1-yl)amino)-6-(1-(difluoromethyl)cyclopropyl)-2-methylpyrido[4,3-d]pyrimidin-7(6H)-one]	100 to 500	< 100	–
C#C[C@@H](Nc1ncnc2c1cc(C1(F)CCN(C(C)=O)C1)c(=O)n2C)c1cccc(C(F)F)c1F (stereo partly drawn) [Compound 45, 6-(1-acetyl-3-fluoropyrrolidin-3-yl)-4-{[(1R)-1-[3-(difluoromethyl)-2-fluorophenyl]prop-2-yn-1-yl]amino}-8-methyl-7H,8H-pyrido[2,3-d]pyrimidin-7-one]	< 100	100 to 200	–
